IC50 and IC90 data for 42 molecules are collected here from ChEMBL document CHEMBL4483862, “Open-source discovery of chemical leads for next-generation chemoprotective antimalarials” (2018).

pIC50: −log10 of the molar value.

The test system of the assay is Plasmodium berghei. In words: Luciferase/luciferin-expressing antifolate-resistant parasites were used to infect a culture of HepG2 cells that were pre-incubated with compounds. Infected hepatocytes emit light due to the luciferase reaction. Assay results are presented as the percent inhibition of light emission compared to control. […]. In kind it is functional. Particulars: sporozoite; for IC90: read-out: LUCIFERASE INFECTION ASSAY - IC90.

Setting [1] is: read-out: LUCIFERASE INFECTION ASSAY - IC50.

With `FC(F)(F)c1cccc(-c2cc3c(Nc4ccc5c(c4)OCCO5)nccc3[nH]2)c1`, the IC90 stood at 5.7 µM. In addition, the pIC50 (HEPG2TOX_HILL_SLOPE 20.2, HEPG2TOX_R_SQUARED 0.64, PBLUC_HILL_SLOPE 4.68, PBLUC_R_SQUARED 0.558, read-out: LUCIFERASE INFECTION ASSAY - IC50) was 5.45.

For `CCCS(=O)(=O)/C(C#N)=C/c1ccc(-c2ccc(OC)cc2)s1`, the IC90 was 2.37 µM. Under setting [1], the pIC50 is 5.96.

As for `CCN(Cc1ccc2c(c1)OCO2)C(=O)/C=C/c1c(C)nc2sc(C)cn12`, the IC90 was above 10 µM. Besides, the pIC50 (PBLUC_HILL_SLOPE 2.08, PBLUC_R_SQUARED 0.691, read-out: LUCIFERASE INFECTION ASSAY - IC50) was 5.06.

Regarding `CCOc1ccc(C(=O)CN(C#N)C(=O)c2ccccc2)cc1`, the IC90 came to 0.758 µM. In addition, the pIC50 (HEPG2TOX_HILL_SLOPE 0.95, HEPG2TOX_R_SQUARED 0.917, PBLUC_HILL_SLOPE 159, PBLUC_R_SQUARED 0.609, read-out: LUCIFERASE INFECTION ASSAY - IC50) was 6.13.

Consider `O=c1c(Cl)c2[nH]c3ccccc3nc-2c2ccccc12`, for which the IC90 was above 11.8 µM. For the same molecule, the pIC50 under setting [1] was below 4.93.

Regarding `N#Cc1c(Cl)cccc1N1CCC(C#N)CC1`, the IC90 is above 13.4 µM. Besides, the pIC50 (HEPG2TOX_HILL_SLOPE 0.959, HEPG2TOX_R_SQUARED 0.904, PBLUC_HILL_SLOPE 1.25, PBLUC_R_SQUARED 0.0637, read-out: LUCIFERASE INFECTION ASSAY - IC50) was 5.20.

Take `Cc1cccc(COC(=O)C2CCN(C3=NS(=O)(=O)c4ccccc43)CC2)c1`: the IC90 was above 10 µM. The pIC50 under setting [1] was below 5.00.

Regarding `Brc1ccc(OCc2ccccc2)c(CNCc2cccnc2)c1`, the IC90 is above 8.61 µM. In addition, the pIC50 under setting [1] was below 5.06.

With `COc1cc(C(=O)OCC#N)ccc1OCc1c(C)noc1C`, the IC90 is above 10 µM. The pIC50 under setting [1] was below 5.00.

Take `Cc1[nH]c2ccccc2c1C1=NN=C(Nc2ccc(F)cc2)SC1`: the IC90 is above 10 µM. Moreover, the pIC50 (HEPG2TOX_HILL_SLOPE 10.5, HEPG2TOX_R_SQUARED 0.592, PBLUC_HILL_SLOPE 2.25, PBLUC_R_SQUARED 0.706, read-out: LUCIFERASE INFECTION ASSAY - IC50) was 5.26.

Regarding `FC(F)(F)Oc1ccc(-c2cnc3ccc(NCc4ccccn4)nn23)cc1`, the IC90 was 1.24 µM. Further, the pIC50 (HEPG2TOX_HILL_SLOPE 11.3, HEPG2TOX_R_SQUARED 0.834, PBLUC_HILL_SLOPE 11.1, PBLUC_R_SQUARED 0.439, read-out: LUCIFERASE INFECTION ASSAY - IC50) is 5.99.

Consider `O=c1c2ccccc2c(-c2ccc(F)cc2F)nn1-c1ccccc1`, for which the 90% effect concentration (IC90) was above 9.87 µM. Also, the pIC50 under setting [1] is below 5.01.

As to `COc1cc(OC)c2[nH]c(C(=O)NCCc3ccc(-c4csc(C)n4)s3)cc2c1`, the IC90 is above 10 µM. In addition, under setting [1], the pIC50 was below 5.00.

With `Cc1cc(NC(=O)c2cc(-c3ccc(Br)cc3)nc3ccccc23)n(-c2ccc([N+](=O)[O-])cc2)n1`, the IC90 is 1.17 µM. Also, the pIC50 (HEPG2TOX_HILL_SLOPE 1.65, HEPG2TOX_R_SQUARED 0.917, PBLUC_HILL_SLOPE 13.2, PBLUC_R_SQUARED 0.485, read-out: LUCIFERASE INFECTION ASSAY - IC50) is 6.00.

On to `O=C(C1CN(C(=O)CCCc2c[nH]c3ccccc23)c2ccccc2O1)N1CCCCC1` (centres undefined), for which the IC90 is above 10 µM. Moreover, the pIC50 under setting [1] was below 5.00.

`Cc1ccc(CN(C)C(=O)CSc2nnc(-c3ccc(C(C)(C)C)cc3)o2)c(C)c1`: the IC90 is above 10 µM. In addition, under setting [1], the pIC50 is below 5.00.

As for `COc1ccc(-c2cnc3cnc(-c4cc(OC)cc(OC)c4)cn23)cc1`, the IC90 came to 3.63 µM. In addition, the pIC50 (HEPG2TOX_HILL_SLOPE 2.43, HEPG2TOX_R_SQUARED 0.949, PBLUC_HILL_SLOPE 13, PBLUC_R_SQUARED 0.663, read-out: LUCIFERASE INFECTION ASSAY - IC50) is 5.51.

As for `CC(CNC(=O)C1(C)CC1(Cl)Cl)N(C)c1ccccc1` (centres undefined), the concentration for an effect of 90% (IC90) is above 10 µM. For the same molecule, the pIC50 under setting [1] is below 5.00.

On to `CCc1cccc(NC(=O)C[n+]2c3n(c4ccc(C(F)(F)F)cc42)CCCCC3)c1`, for which the IC90 was found to be 8.61 µM. The negative logarithm of the IC50 (pIC50) under setting [1] was 5.55.

On to `COc1cc(CNC2CCCC2)c(Br)cc1OC1CCCC1`, for which the 90% effect concentration (IC90) is above 8.15 µM. Moreover, the pIC50 (PBLUC_HILL_SLOPE 45, PBLUC_R_SQUARED 0.216, read-out: LUCIFERASE INFECTION ASSAY - IC50) was 5.09.

Regarding `CCN(CC)S(=O)(=O)c1cc(C)c(C)c(NC(=O)c2cc(C3CC3)nc3onc(C)c23)c1`, the IC90 came out at 9.64 µM. Besides, under “PBLUC_HILL_SLOPE 5.13, PBLUC_R_SQUARED 0.485, read-out: LUCIFERASE INFECTION ASSAY - IC50”, the pIC50 is 5.20.

Consider `O=S(=O)(c1ccc2oc(Nc3ccc(Nc4ccccc4)cc3)nc2c1)N1CCOCC1`, for which the IC90 was above 10 µM. Further, where the note is “FFLUC_HILL_SLOPE 13.7, FFLUC_R_SQUARED 0.693, PBLUC_HILL_SLOPE 9.99, PBLUC_R_SQUARED 0.314, read-out: LUCIFERASE INFECTION ASSAY - IC50”, the pIC50 was 5.03.

Regarding `NS(=O)(=O)c1cc(C(=O)OCC(=O)Nc2ccc(OC(F)F)cc2)ccc1Cl`, the IC90 is above 10 µM. Moreover, the pIC50 (PBLUC_HILL_SLOPE 2.5, PBLUC_R_SQUARED 0.514, read-out: LUCIFERASE INFECTION ASSAY - IC50) was 5.18.

With `O=[N+]([O-])c1cc(/C=C/c2nc3ccccc3s2)ccc1N1CCOCC1`, the IC90 was above 10 µM. Besides, the pIC50 (PBLUC_HILL_SLOPE 0.872, PBLUC_R_SQUARED 0.699, read-out: LUCIFERASE INFECTION ASSAY - IC50) is 5.85.

Take `Cc1cc(O)cc2c1C(=O)/C(=C/c1ccc(F)cc1)O2`: the IC90 is above 12.2 µM. Further, under setting [1], the negative-log IC50 (pIC50) is below 4.91.

As to `Cc1cc(C(=O)Cn2cnc3ccccc3c2=O)c(C)n1-c1ccccc1`, the IC90 was above 10 µM. Besides, under “HEPG2TOX_HILL_SLOPE 1.21, HEPG2TOX_R_SQUARED 0.806, PBLUC_HILL_SLOPE 1.3, PBLUC_R_SQUARED 0.604, read-out: LUCIFERASE INFECTION ASSAY - IC50”, the pIC50 was 5.53.

In the case of `COc1ccc(C(C)NC(=O)CCCN2C(=O)c3ccccc3C2=O)cc1F` (centres undefined), the IC90 is above 10 µM. In addition, the pIC50 under setting [1] is below 5.00.

In the case of `CC(=O)Oc1cc2sc(=O)oc2c2ccccc12`, the IC90 was above 12.7 µM. The negative logarithm of the IC50 (pIC50) under setting [1] was below 4.90.

For `O=C(C1CC(=O)N(c2ccccc2F)C1)N1CCN(c2ccc(C(F)(F)F)cn2)CC1` (centres undefined), the concentration for an effect of 90% (IC90) is above 10 µM. Further, the pIC50 under setting [1] was below 5.00.

As for `CC(C)(C)c1ccc(C(=O)Nc2nnc(Sc3ccc([N+](=O)[O-])cc3C#N)s2)cc1`, the IC90 was found to be 4.98 µM. For the same molecule, the pIC50 (PBLUC_HILL_SLOPE 0.682, PBLUC_R_SQUARED 0.567, read-out: LUCIFERASE INFECTION ASSAY - IC50) was 6.70.

With `CCOc1ccc2ccccc2c1/C=C/c1ccc2cccc(O)c2n1`, the IC90 is 3.84 µM. For the same molecule, the pIC50 (HEPG2TOX_HILL_SLOPE 14.8, HEPG2TOX_R_SQUARED 0.407, PBLUC_HILL_SLOPE 11.5, PBLUC_R_SQUARED 0.372, read-out: LUCIFERASE INFECTION ASSAY - IC50) was 5.50.

Take `C1=C(c2nc3ccccc3[nH]2)C(c2ccccc2)=NNC1c1ccccc1` (centres undefined): the IC90 is above 10 µM. Also, under setting [1], the negative-log IC50 (pIC50) is 5.00.

With `CO/N=C/NC(=O)/C(C#N)=C/N(C)C`, the IC90 is above 16.8 µM. Also, the pIC50 (PBLUC_HILL_SLOPE 13.3, PBLUC_R_SQUARED 0.155, read-out: LUCIFERASE INFECTION ASSAY - IC50) was 4.84.

Take `Cc1oc(-n2cccc2)c(C#N)c1C(=O)Nc1nc(-c2ccccn2)cs1`: the IC90 is above 10 µM. In addition, under setting [1], the pIC50 is 5.03.

Consider `Cc1ccc(NC(=O)c2[nH]nc3c2CCCC3)cc1Cl`, for which the IC90 is above 2 µM. Besides, the pIC50 (PBLUC_HILL_SLOPE 0.552, PBLUC_R_SQUARED 0.432, read-out: LUCIFERASE INFECTION ASSAY - IC50) was 7.13.

As for `Clc1cccc(-c2nnc3ccc(-c4ccc(N5CCOCC5)cc4)cn23)c1`, the IC90 was above 10 µM. Moreover, the pIC50 (PBLUC_HILL_SLOPE 15.8, PBLUC_R_SQUARED 0.114, read-out: LUCIFERASE INFECTION ASSAY - IC50) was 5.01.

As for `COc1cc(-c2cnc3cnc(-c4cccnc4)cn23)ccc1O`, the 90% effect concentration (IC90) was 3.99 µM. For the same molecule, the negative logarithm of the IC50 (pIC50) (PBLUC_HILL_SLOPE 15.7, PBLUC_R_SQUARED 0.533, read-out: LUCIFERASE INFECTION ASSAY - IC50) was 5.46.

For the molecule `CN1c2ccccc2C(C)(C)C12C=Cc1c(ccc3oc4c(c13)CCCC4)O2` (centres undefined), the IC90 is above 10 µM. In addition, where the note is “PBLUC_HILL_SLOPE 2.26, PBLUC_R_SQUARED 0.401, read-out: LUCIFERASE INFECTION ASSAY - IC50”, the negative logarithm of the IC50 (pIC50) is 5.08.

In the case of `CCOC(=O)N1CCC(N/C=C(\C#N)S(=O)(=O)c2ccc(Cl)cc2)CC1`, the 90% effect concentration (IC90) worked out at 3.29 µM. Moreover, the negative-log IC50 (pIC50) (PBLUC_HILL_SLOPE 8.69, PBLUC_R_SQUARED 0.709, read-out: LUCIFERASE INFECTION ASSAY - IC50) was 5.59.

`CN(C)c1cccc(CNc2nccc3nc(-c4cccc(F)c4)[nH]c23)c1`: the IC90 stood at 5.76 µM. Besides, the pIC50 (HEPG2TOX_HILL_SLOPE 3.96, HEPG2TOX_R_SQUARED 0.788, PBLUC_HILL_SLOPE 4.1, PBLUC_R_SQUARED 0.415, read-out: LUCIFERASE INFECTION ASSAY - IC50) is 5.47.

Take `CCCN(CCC(=O)Nc1cccc(Cl)c1)CC1CC1`: the IC90 was above 11.2 µM. The pIC50 under setting [1] was below 4.95.

With `Cc1nc2c3c(C)c(C)n(C4CCCCCC4)c3ncn2n1`, the IC90 was above 11.1 µM. Under setting [1], the negative logarithm of the IC50 (pIC50) is below 4.95.

As usually defined, the pIC50 is the negative decadic logarithm of the IC50, by convention in mol/L. As a reminder, the IC90 is the concentration needed for an effect of 90%.
